Reference: US20030228357A1, “Dry granulated formulations of azithromycin” (Pfizer Inc., priority 2002, published 2003)
“Also recorded” adds a separate entry of the source.

How the values were obtained:
Assay type in all cases: physicochemical
[1] = Slug (compact) hardness, Schleuniger hardness tablet tester
Excerpt: A compaction simulator was used to compress the blends. The compaction simulator was designed as a single station tablet press in which the compression dwell time can be adjusted to simulate different types of tablet presses. All the formulations were slugged on the compaction simulator configured as the Kilian RX-67 press with a dwell time of 0.3145 seconds using […] round flat face tooling. The slugs were then comminuted using a Fitz mill with a 0.125″ screen with knives forward and run at slow speed. […] The slugs were tested for hardness (kP scale), using a Schleuniger hardness tablet tester (Dr. Schleuniger Pharmatron AG, Solothurn, Switzerland).

[2] = Density and Carr's Compressibility Index (flowability) of dry blends and dry granulations
Excerpt: Carr's Compressibility Index was used to evaluate the flowability of the four dry granulations. Carr's Compressibility Index is a simple test to evaluate flowability by comparing both the initial and final (tapped) bulk volumes and the rate of packing down. A useful empirical guide to flow is given by Carr's compressibility index: Compressibility Index(%)=[(tapped density−initial density)/tapped density]×100 […] The procedure is described in Int. J. Pharm. Tech. & Prod. Mfr., 6(3) 10-16, 1985.

[3] = Tablet hardness, Schleuniger hardness tablet tester; settings: for Avg Tab Hardness: Short blend, Oval tooling
[4] = Tablet friability, Vanderkamp Friabulator (100 rotations/4 minutes)
Description: Friability is a standard test known to one skilled in the art. Friability is measured under standardized conditions by weighing out a certain number of tablets (generally 20 tablets or less), placing them in a rotating Plexiglas drum in which they are lifted during replicate revolutions by a radial lever, and then dropped approximately 8 inches. After replicate revolutions (typically 100 revolutions at 25 rpm), the tablets are reweighed and the percentage of formulation abraded or chipped is calculated. The friability of the tablets, of the present invention, is preferably in the range of about 0% to 3%, and values about 1%, or less, are considered acceptable for most drug and food tablet contexts. Friability which approaches 0% is particularly preferred.
(§1) All four formulations were compressed on the compaction simulator using either 0.344″×0.688″ oval tooling, or ½″ standard round concave (SRC) tooling. The tablets were tested for hardness (kP scale), using a Schleuniger hardness tablet tester (Dr. Schleuniger Pharmatron AG, Solothurn, Switzerland), and for friability (100 rotations/4 minutes) using a Vanderkamp Friabulator Tablet Tester (Vankel, Cary, N.C., US).

[5] = Tablet hardness, Schleuniger hardness tablet tester
Description: as §1

[6] = Indices of tableting performance (Hiestand) of bulk azithromycin; settings: forms N, M, G, A milled, F and J unmilled
Description: Indices of tableting performance, for several azithromycin forms, were assessed to identify any mechanical deficiencies or attributes that may affect tablet formulation for these azithromycin forms. This assessment was performed in accordance with the procedures described in “Indices of Tableting, Performance” […] and D. P. Smith, Powder Technology 38 [1984] pp. 145-159. Specifically, the Brittle Fracture Index, BFI, was calculated from the ratio of a material's regular tensile strength to its compromised tensile strength. Strain Index, SI, was determined from the dynamic indentation hardness test. Worst Case Bonding Index was determined by assessing the extent of particle bonding remaining after decompression assuming a very short compression dwell time and a plastic mechanism of particle separation during decompression. Tableting Indices were determined for bulk azithromycin lots of six different crystalline forms, specifically forms N, M, G, A, F and J. Forms N, M and G were milled with a Fitzmill (Model JT, The Fitzpatrick Co., Elmhurst, Ill.) using a 0.027'' screen and knives at high speed in an attempt to match the smaller particle size of milled Form A. Unmilled forms F and J were evaluated “as is” due to their relatively small particle sizes.

[7] = Tablet friability, Vanderkamp Friabulator (100 rotations/4 minutes); remark: listed apart in the source
[8] = Table 3A, low drug loading: 35.2 wt % azithromycin, 54.8 wt % dicalcium phosphate anhydrous, long blend
[9] = Table 3B, high drug loading: 58.2 wt % azithromycin, 31.8 wt % dicalcium phosphate anhydrous, long blend
[10] = Table 6A, Drug Loading High (58.2 wt % azithromycin), DCP anhydrous
[11] = Table 6A, Drug Loading Low (35.2 wt % azithromycin), DCP anhydrous
[12] = Table 3D, high drug loading (58.2 wt % azithromycin), DCP anhydrous, modified capsule shape tablets, target weight 450 mg
[13] = Table 6B, Drug Loading High, Modified Capsule 0.262″ × 0.531″
[14] = Table 6B, Drug Loading Low, Modified Capsule 0.262″ × 0.531″
[15] = Table 6B, Drug Loading Low, ½″ SRC
[16] = Table 3C, low drug loading (35.2 wt % azithromycin), DCP anhydrous, oval tablets, target weight 750 mg
[17] = Table 6B, Drug Loading High, Oval 0.344″ × 0.688″
[18] = Table 6B, Drug Loading Low, Oval 0.344″ × 0.688″
[19] = 35.2 wt % azithromycin, dicalcium phosphate anhydrous diluent, Short blend method
[20] = Table 4A, low drug loading (35.2 wt % azithromycin), diluent Lactose
[21] = Table 4B, high drug loading (58.2 wt % azithromycin), diluent Lactose
[22] = Table 5A, 58.2 wt % azithromycin, dicalcium phosphate dihydrate, disintegrant Explotab
[23] = Table 5A, 58.2 wt % azithromycin, dicalcium phosphate dihydrate, disintegrant PVP-XL
[24] = 35.2 wt % azithromycin, dicalcium phosphate anhydrous diluent, Short blend method, slugged
[25] = Table 7A, 55.76 wt % azithromycin, lactose anhydrous, corn starch, roller compaction 850 psi
[26] = Table 4D, high drug loading, diluent Lactose, modified capsule shape
[27] = Table 5B, Explotab, 250 mgA, Modified Capsule, Precompression No
[28] = Table 5B, Explotab, 500 mgA, Oval, Precompression 3.5 kN
[29] = Table 5B, Explotab, 500 mgA, Oval, Precompression No
[30] = Table 5B, PVP-XL, 250 mgA, Modified Capsule, Precompression No
[31] = Table 5B, PVP-XL, 600 mgA, Modified Oval, Precompression 1.5 kN
[32] = Table 5B, PVP-XL, 600 mgA, Modified Oval, Precompression No

In the case of `CCC1OC(=O)C(C)C(O[C@H]2C[C@@](C)(OC)[C@@H](O)C(C)O2)C(C)[C@@H](OC2OC(C)CC(N(C)C)[C@H]2O)[C@@](C)(O)C[C@@H](C)CN(C)[C@H](C)[C@@H](O)[C@]1(C)O` (some centres unmarked) [Form J, azithromycin monohydrate hemi-n-propanol solvate], the “Avg Slug Hardness” value [1, 8] is reported as 14 kP, the “Avg Slug Hardness” value [1, 9] is reported as 11 kP and the “Avg Slug Hardness” value [1, 10] is reported as 11 kP. The “Avg Slug Hardness” value [1, 11] was 14 kP, the “Granulation Carr's Index” value [2, 8] was 22% and the “Granulation Density As Is” value [2, 8] was 0.87 g/cc. For the same compound, the “Granulation Density Tapped” value [2, 8] was 1.12 g/cc, the “Granulation Carr's Index” value [2, 9] was 28% and the “Granulation Density As Is” value [2, 9] was 0.67 g/cc. The “Granulation Density Tapped” value [2, 9] was 0.93 g/cc, the “Dry Granulation Carr's Index” value [2, 10] was 28% and the “Dry Granulation Density As Is” value [2, 10] was 0.67 g/cc. For the same compound, the “Dry Granulation Density Tapped” value [2, 10] was 0.93 g/cc, the “Dry Granulation Carr's Index” value [2, 11] was 22% and the “Dry Granulation Density As Is” value [2, 11] was 0.87 g/cc. For the same compound, the “Dry Granulation Density Tapped” value [2, 11] was 1.12 g/cc, the “Avg Hardness” value [3, 12] was 6.5 kP and the “Avg Hardness” value [3, 13] was 6.5 kP. The “Avg Hardness” value [3, 14] was 6.9 kP, the “Avg Hardness” value [3, 15] was 5.4 kP and the Friability [4, 16] was “broke during friability testing; also recorded: Broken”. It also gave a Friability [4, 13] of 0.38%, a Friability [4, 17] of 0.71% and a Friability [4, 14] of 0.52%. For the same compound, the Friability [4, 18] was “Broken Tablets”, the Friability [4, 15] was 1.46% and the “Avg Hardness” value [5, 16] was 9.1 kP. For the same compound, the “Avg Hardness” value [5, 17] was 10.2 kP, the “Avg Hardness” value [5, 18] was 9.1 kP and the “Brittle Fracture Index (BFI)” value [6] was 0.11. For the same compound, the “Strain Index (SI)” value [6] was 0.0043, the “Tensile Strength” value [6] was 0.69 Mpa and the “Worst Case Bonding Index (BIw) × 10^2” value [6] was 0.7. The Friability [7, 12] was 0.38%.

With `CCC1OC(=O)C(C)C(O[C@H]2C[C@@](C)(OC)[C@@H](O)C(C)O2)C(C)[C@@H](OC2OC(C)CC(N(C)C)[C@H]2O)[C@@](C)(O)C[C@@H](C)CN(C)[C@H](C)[C@@H](O)[C@]1(C)O` (some centres unmarked) [Form M, azithromycin monohydrate hemi-isopropanol solvate] the “Avg Slug Hardness” value [1, 19] was 10.9 kP, the “Avg Slug Hardness” value [1, 8] was 11 kP and the “Avg Slug Hardness” value [1, 20] was 13 kP. For the same compound, the “Avg Slug Hardness” value [1, 21] was 11 kP, the “Avg Slug Hardness” value [1, 22] was 12 kP and the “Avg Slug Hardness” value [1, 23] was 13 kP. The “Dry Blend Carr's Index” value [2, 19] was 36%, the “Dry Blend density As Is” value [2, 19] was 0.68 g/cc and the “Dry Blend density Tapped” value [2, 19] was 1.08 g/cc. For the same compound, the “Granulation Carr's Index” value [2, 24] was 28%, the “Granulation Density As Is” value [2, 24] was 0.82 g/cc and the “Granulation Density Tapped” value [2, 24] was 1.14 g/cc. The “Granulation Carr's Index” value [2, 8] was 28%, the “Granulation Density As Is” value [2, 8] was 0.82 g/cc and the “Granulation Density Tapped” value [2, 8] was 1.14 g/cc. For the same compound, the “Dry Granulation Carr's Index” value [2, 20] was 30%, the “Dry Granulation Density As Is” value [2, 20] was 0.55 g/cc and the “Dry Granulation Density Tapped” value [2, 20] was 0.78 g/cc. The “Dry Granulation Carr's Index” value [2, 21] was 29%, the “Dry Granulation Density As Is” value [2, 21] was 0.53 g/cc and the “Dry Granulation Density Tapped” value [2, 21] was 0.75 g/cc. The “Dry Granulation Carr's Index” value [2, 22] was 26%, the “Dry Granulation Density As Is” value [2, 22] was 0.67 g/cc and the “Dry Granulation Density Tapped” value [2, 22] was 0.91 g/cc. For the same compound, the “Dry Granulation Carr's Index” value [2, 23] was 25%, the “Dry Granulation Density As Is” value [2, 23] was 0.63 g/cc and the “Dry Granulation Density Tapped” value [2, 23] was 0.84 g/cc. For the same compound, the “Dry Granulation Carr's Index” value [2, 25] was 24%, the “Dry Granulation Density As Is” value [2, 25] was 0.62 g/cc and the “Dry Granulation Density Tapped” value [2, 25] was 0.82 g/cc. The “Avg Tab Hardness” value ([3]; Table 2B Run 6, compression force 19.4 kN) was 8.4 kP, the “Avg Tab Hardness” value ([3]; Table 2B Run 7, compression force 14 kN) was 5.1 kP and the “Avg Hardness” value [3, 12] was 6.1 kP. For the same compound, the “Avg Tablet Hardness” value [3, 26] was 5.8 kP, the “Avg Hardness” value [3, 27] was 4.5 kP and the “Avg Hardness” value [3, 28] was 7.4 kP. For the same compound, the “Avg Hardness” value [3, 29] was 5.6 kP, the “Avg Hardness” value [3, 30] was 4.9 kP and the “Avg Hardness” value [3, 31] was 9.2 kP. For the same compound, the “Avg Hardness” value [3, 32] was 4.2 kP, the Friability ([4]; Table 2B Run 6, Short blend, Oval tooling, compression force 19.4 kN) was “capped” and the Friability ([4]; Table 2B Run 7, Short blend, Oval tooling, compression force 14 kN) was “capped”. The Friability [4, 26] was 0.28%, the Friability [4, 28] was 0.50% and the Friability [4, 29] was 2.71%. The Friability [4, 30] was 0.25%, the Friability [4, 32] was 6.34% and the “Avg Hardness” value [5, 16] was 8.4 kP. The “Brittle Fracture Index (BFI)” value [6] was 0.10, the “Strain Index (SI)” value [6] was 0.0048 and the “Tensile Strength” value [6] was 0.79 Mpa. For the same compound, the “Worst Case Bonding Index (BIw) × 10^2” value [6] was 1.0, the Friability [7, 12] was 0.45% and the Friability [7, 27] was 0.33%. For the same compound, the Friability [7, 31] was 0.34%.
